Source: paper PMC10170162, “Identification of a new gibberellin receptor agonist, diphegaractin, by a cell-free chemical screening system” (Communications Biology, 2023)

Key:
Test in all cases: AlphaScreen GID1-DELLA interaction
Assay type in all cases: biochemical
[1] = molecular target: T1, VvGID1b (with VvDELLA2) (Vitis vinifera, UniProt F6HQ36); conditions: agonist; partner VvDELLA2 (also VvDELLA1); dose series; pH 8.0, 26 °C; unpurified cell-free proteins
T1 construct: C-terminal biotinylated GID1 and C-terminal FLAG-tagged DELLA, wheat germ cell-free synthesis, unpurified; cDNA from grape leaf mRNA; with DELLA protein
T1 sequence (F6HQ36 1-344): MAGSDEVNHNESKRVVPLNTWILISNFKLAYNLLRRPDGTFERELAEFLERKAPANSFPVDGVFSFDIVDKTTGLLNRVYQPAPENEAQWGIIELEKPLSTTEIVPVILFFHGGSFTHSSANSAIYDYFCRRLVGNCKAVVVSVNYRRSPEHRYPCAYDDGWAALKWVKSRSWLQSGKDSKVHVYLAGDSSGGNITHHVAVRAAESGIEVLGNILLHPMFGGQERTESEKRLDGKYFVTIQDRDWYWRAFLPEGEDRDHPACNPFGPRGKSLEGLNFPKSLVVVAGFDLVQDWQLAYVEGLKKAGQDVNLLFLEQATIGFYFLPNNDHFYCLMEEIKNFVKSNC
T1 sequence (F6HH58 1-532 partner): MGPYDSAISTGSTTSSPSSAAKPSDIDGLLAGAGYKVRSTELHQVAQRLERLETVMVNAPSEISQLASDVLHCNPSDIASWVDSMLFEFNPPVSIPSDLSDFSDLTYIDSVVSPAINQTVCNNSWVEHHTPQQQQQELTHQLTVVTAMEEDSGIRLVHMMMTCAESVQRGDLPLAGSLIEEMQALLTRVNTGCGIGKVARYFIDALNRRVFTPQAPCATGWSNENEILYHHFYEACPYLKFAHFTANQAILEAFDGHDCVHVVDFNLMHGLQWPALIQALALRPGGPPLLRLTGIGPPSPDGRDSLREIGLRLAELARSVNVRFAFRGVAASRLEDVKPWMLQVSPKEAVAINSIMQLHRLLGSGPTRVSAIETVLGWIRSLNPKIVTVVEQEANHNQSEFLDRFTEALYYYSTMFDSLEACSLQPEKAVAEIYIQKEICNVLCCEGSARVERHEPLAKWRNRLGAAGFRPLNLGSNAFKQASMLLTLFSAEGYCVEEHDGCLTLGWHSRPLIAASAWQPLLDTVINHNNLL

[2] = molecular target: T2, VvGID1a (with VvDELLA2) (Vitis vinifera, UniProt A5BRG2); conditions: agonist; partner VvDELLA2 (also VvDELLA1, VvDELLA3); dose series; pH 8.0, 26 °C; unpurified cell-free proteins
T2 construct: C-terminal biotinylated GID1 and C-terminal FLAG-tagged DELLA, wheat germ cell-free synthesis, unpurified; also tested with VvDELLA1 and VvDELLA3; with DELLA protein
T2 sequence (A5BRG2 1-344): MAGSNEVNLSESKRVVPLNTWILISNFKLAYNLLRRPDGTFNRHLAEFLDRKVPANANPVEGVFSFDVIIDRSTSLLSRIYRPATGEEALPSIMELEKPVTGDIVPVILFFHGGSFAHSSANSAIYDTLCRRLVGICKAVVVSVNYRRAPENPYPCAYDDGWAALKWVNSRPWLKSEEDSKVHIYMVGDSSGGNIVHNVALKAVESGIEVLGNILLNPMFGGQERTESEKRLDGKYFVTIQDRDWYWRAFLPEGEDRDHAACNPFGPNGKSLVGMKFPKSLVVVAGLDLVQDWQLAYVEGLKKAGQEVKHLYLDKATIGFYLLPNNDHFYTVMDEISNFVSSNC
T2 sequence (F6HH58 1-532 partner): T1 sequence (F6HH58 1-532 partner)

[3] = molecular target: T3, OsGID1 (with OsSLR) (Oryza sativa, UniProt Q6L545, V326I/L330F); conditions: agonist; partner OsSLR; pH 8.0, 26 °C; unpurified cell-free proteins
T3 construct: gene GID1; C-terminal biotinylated GID1 and C-terminal FLAG-tagged DELLA, wheat germ cell-free synthesis, unpurified; with DELLA protein SLR1
T3 sequence (Q6L545 1-354 V326I/L330F): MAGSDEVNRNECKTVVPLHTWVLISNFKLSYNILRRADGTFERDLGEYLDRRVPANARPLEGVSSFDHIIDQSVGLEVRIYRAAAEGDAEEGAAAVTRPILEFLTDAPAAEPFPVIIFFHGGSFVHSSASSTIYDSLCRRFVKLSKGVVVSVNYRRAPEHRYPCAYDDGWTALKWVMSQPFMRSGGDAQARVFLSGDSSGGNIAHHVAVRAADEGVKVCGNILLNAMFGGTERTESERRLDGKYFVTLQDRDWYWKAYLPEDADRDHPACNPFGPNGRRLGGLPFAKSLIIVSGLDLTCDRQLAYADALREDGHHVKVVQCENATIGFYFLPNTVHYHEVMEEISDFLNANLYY
T3 sequence (Q7G7J6 1-625 partner): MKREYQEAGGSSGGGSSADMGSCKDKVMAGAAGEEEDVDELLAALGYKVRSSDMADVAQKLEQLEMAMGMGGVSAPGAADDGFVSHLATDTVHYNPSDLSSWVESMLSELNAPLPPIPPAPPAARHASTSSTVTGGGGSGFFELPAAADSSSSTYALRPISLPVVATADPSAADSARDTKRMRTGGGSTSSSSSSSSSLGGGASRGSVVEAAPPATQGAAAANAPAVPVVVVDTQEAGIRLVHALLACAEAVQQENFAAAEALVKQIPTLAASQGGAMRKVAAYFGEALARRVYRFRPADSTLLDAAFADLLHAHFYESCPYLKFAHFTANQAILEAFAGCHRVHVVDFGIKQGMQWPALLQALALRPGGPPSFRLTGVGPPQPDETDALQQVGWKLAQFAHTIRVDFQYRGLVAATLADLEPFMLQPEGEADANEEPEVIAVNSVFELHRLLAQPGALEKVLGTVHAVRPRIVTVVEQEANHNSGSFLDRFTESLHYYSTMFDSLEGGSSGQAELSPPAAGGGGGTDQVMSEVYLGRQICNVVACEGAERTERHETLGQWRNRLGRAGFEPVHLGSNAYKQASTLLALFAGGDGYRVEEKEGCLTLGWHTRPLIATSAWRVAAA

[4] = molecular target: T4, AtGID1b (with AtRGA) (Arabidopsis thaliana, UniProt Q9LYC1); conditions: agonist; partner AtRGA; pH 8.0, 26 °C; unpurified cell-free proteins
T4 construct: gene GID1B; C-terminal biotinylated GID1 and C-terminal FLAG-tagged DELLA, wheat germ cell-free synthesis, unpurified; with DELLA protein RGA
T4 sequence (Q9LYC1 2-358): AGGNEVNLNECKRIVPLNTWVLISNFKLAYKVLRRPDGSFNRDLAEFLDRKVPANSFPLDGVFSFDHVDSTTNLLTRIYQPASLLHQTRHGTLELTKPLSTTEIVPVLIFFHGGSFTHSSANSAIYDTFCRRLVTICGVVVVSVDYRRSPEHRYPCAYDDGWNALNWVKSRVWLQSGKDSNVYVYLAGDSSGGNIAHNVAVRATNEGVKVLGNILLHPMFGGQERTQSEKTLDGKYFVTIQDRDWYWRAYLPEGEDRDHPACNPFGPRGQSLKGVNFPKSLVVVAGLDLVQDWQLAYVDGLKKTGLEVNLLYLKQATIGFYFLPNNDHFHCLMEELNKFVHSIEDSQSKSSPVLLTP
T4 sequence (Q9SLH3 1-587 partner): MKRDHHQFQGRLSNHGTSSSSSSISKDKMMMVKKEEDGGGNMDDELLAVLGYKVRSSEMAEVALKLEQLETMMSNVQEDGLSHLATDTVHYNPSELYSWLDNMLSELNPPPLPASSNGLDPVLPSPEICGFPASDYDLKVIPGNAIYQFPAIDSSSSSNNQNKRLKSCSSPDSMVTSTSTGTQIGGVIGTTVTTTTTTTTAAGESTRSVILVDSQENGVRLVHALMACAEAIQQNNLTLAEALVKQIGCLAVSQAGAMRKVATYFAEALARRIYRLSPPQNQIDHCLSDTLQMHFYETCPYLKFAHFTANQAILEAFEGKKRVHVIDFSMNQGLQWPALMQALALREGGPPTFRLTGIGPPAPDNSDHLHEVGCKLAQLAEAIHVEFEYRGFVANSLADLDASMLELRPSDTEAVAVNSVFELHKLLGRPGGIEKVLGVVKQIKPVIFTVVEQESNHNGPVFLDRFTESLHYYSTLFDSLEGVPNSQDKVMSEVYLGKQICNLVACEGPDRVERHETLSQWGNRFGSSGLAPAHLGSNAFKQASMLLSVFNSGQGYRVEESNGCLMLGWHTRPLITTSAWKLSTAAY

[5] = molecular target: T5, AtGID1c (with AtRGA) (Arabidopsis thaliana, UniProt Q940G6); conditions: agonist; partner AtRGA (also AtGAI); pH 8.0, 26 °C; unpurified cell-free proteins
T5 construct: gene GID1C; C-terminal biotinylated GID1 and C-terminal FLAG-tagged DELLA, wheat germ cell-free synthesis, unpurified; also tested with AtGAI; with DELLA protein RGA
T5 sequence (Q940G6 2-344): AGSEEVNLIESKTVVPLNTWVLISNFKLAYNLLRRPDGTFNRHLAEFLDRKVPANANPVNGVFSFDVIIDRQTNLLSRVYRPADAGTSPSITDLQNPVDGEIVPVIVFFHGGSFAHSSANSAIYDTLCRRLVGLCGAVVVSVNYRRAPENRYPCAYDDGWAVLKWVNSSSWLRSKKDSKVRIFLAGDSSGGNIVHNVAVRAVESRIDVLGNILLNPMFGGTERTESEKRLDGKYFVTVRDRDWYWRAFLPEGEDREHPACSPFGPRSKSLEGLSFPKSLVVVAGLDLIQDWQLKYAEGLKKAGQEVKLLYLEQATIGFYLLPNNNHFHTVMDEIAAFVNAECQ
T5 sequence (Q9SLH3 1-587 partner): T4 sequence (Q9SLH3 1-587 partner)

For `C=C1C[C@]23C[C@@]1(O)CC[C@H]2[C@@]12CC[C@H](O)[C@@](C)(C(=O)O1)[C@H]2[C@@H]3C(=O)O` [GA1], which “AlphaScreen GID1-DELLA interaction” value [1] is on record?
The value was “VvGID1b also exhibited active and inactive GA-dependent interactions with VvDELLA1 and VvDELLA2”.

And the “AlphaScreen GID1-DELLA interaction” value [2]?
The value was “VvGID1a exhibited GA-dependent interactions with VvDELLA1-3”.

Which results are given for `C=C1C[C@]23C[C@@]1(O)CC[C@H]2[C@@]12C=C[C@H](O)[C@@](C)(C(=O)O1)[C@H]2[C@@H]3C(=O)O` [GA3]?
AlphaScreen GID1-DELLA interaction [1]: VvGID1b also exhibited active and inactive GA-dependent interactions with VvDELLA1 and VvDELLA2; AlphaScreen GID1-DELLA interaction [2]: VvGID1a exhibited GA-dependent interactions with VvDELLA1-3; AlphaScreen GID1-DELLA interaction [3]: swapping had little effect on the interaction between DELLA proteins and GA receptors by GA3

How did the “AlphaScreen GID1-DELLA interaction” value [1] turn out when `C=C1C[C@]23C[C@H]1CC[C@H]2[C@@]12CC[C@H](O)[C@@](C)(C(=O)O1)[C@H]2[C@@H]3C(=O)O` [GA4] was run?
The value was “VvGID1b also exhibited active and inactive GA-dependent interactions with VvDELLA1 and VvDELLA2”.

What about the “AlphaScreen GID1-DELLA interaction” value [2] of the same compound?
The value was “VvGID1a exhibited GA-dependent interactions with VvDELLA1-3”.

Which “AlphaScreen GID1-DELLA interaction” value [1] does the source give for `C=C1C[C@]23C[C@H]1CC[C@H]2[C@@]12C=C[C@H](O)[C@@](C)(C(=O)O1)[C@H]2[C@@H]3C(=O)O` [GA7] here?
Its value is “VvGID1b also exhibited active and inactive GA-dependent interactions with VvDELLA1 and VvDELLA2”.

What about the “AlphaScreen GID1-DELLA interaction” value [2] of the same compound?
Its value is “VvGID1a exhibited GA-dependent interactions with VvDELLA1-3”.

Which “AlphaScreen GID1-DELLA interaction” value [2] does the source give for `C=C1C[C@]23C[C@H]1CC[C@H]2[C@@]12CCC[C@@](C)(C(=O)O1)[C@H]2[C@@H]3C(=O)O` [GA9] here?
The value was “Although a much higher concentration was required, inactive GAs also induced these interactions”.

How did the “AlphaScreen GID1-DELLA interaction” value [2] turn out when `C=C1C[C@]23C[C@@]1(O)CC[C@H]2[C@@]12CCC[C@@](C)(C(=O)O1)[C@H]2[C@@H]3C(=O)O` [GA20] was run?
Its value is “Although a much higher concentration was required, inactive GAs also induced these interactions”.

With `CCCCCC(C(=O)O)(c1ccccc1)c1ccccc1` [diphegaractin, 2,2-diphenylheptanoic acid] as the compound, how does the “AlphaScreen GID1-DELLA interaction” value [1] read?
Its value is “diphegaractin induced two interactions, VvGID1b–VvDELLA1 and VvGID1b–VvDELLA2”.

What about the “AlphaScreen GID1-DELLA interaction” value [4] of the same compound?
The value was “it promoted the interaction of AtGID1b with AtRGA”.

And the “AlphaScreen GID1-DELLA interaction” value [3]?
Its value is “OsGID1 V326I/L330F mutant increased the interaction with OsSLR by diphegaractin”.

What about the “AlphaScreen GID1-DELLA interaction” value [5] of the same compound?
Its value is “AtGID1c with AtRGA and AtGAI”.
